Results: ChEMBL document CHEMBL5608186, “Design, synthesis and structure-activity relationships of novel non-ketolides: 9-Oxime clarithromycin featured with seven-to thirteen-atom-length diamine linkers at 3-OH” (Eur J Med Chem, 2024)
Converted amounts (≈) assume the structure as drawn.

Tests used:
[1] = Metabolic stability in rat liver microsomes assessed as unchanged drug at 1 uM incubated upto 60 mins in presence of NADPH by LC-MS/MS analysis; assay type: ADME, Microsome; conditions: read-out: Stability
[2] = Metabolic stability in human liver microsomes assessed as half life at 1 uM incubated upto 60 mins in presence of NADPH by LC-MS/MS analysis; assay type: ADME, Microsome
[3] = Metabolic stability in human liver microsomes assessed as unchanged drug at 1 uM incubated upto 60 mins in presence of NADPH by LC-MS/MS analysis; assay type: ADME, Microsome; conditions: read-out: Stability
[4] = Metabolic stability in human liver microsomes assessed as intrinsic clearance in liver at 1 uM incubated upto 60 mins in presence of NADPH by LC-MS/MS analysis; assay type: ADME, Microsome; conditions: read-out: CLH
Streptococcus pneumoniae [5] = assay: Bactericidal activity against Streptococcus pneumoniae PU 09 harboring mef gene incubated for 16 to 20 hrs by CLSI based broth microdilution method; assay type: functional; conditions: time 16-20 hrs
Streptococcus pneumoniae [6] = assay: Selectivity ratio of MBC for Streptococcus pneumoniae PU 09 harboring mef gene to MIC for Streptococcus pneumoniae PU 09 harboring mef gene; assay type: functional
Streptococcus pneumoniae [7] = assay: Bactericidal activity against Streptococcus pneumoniae ATCC 49619 incubated for 16 to 20 hrs by CLSI based broth microdilution method; assay type: functional; conditions: time 16-20 hrs
Streptococcus pyogenes [8] = assay: Bactericidal activity against Streptococcus pyogenes 01-968 harboring i-ermB gene incubated for 16 to 20 hrs by CLSI based broth microdilution method; assay type: functional; conditions: time 16-20 hrs
Haemophilus influenzae [9] = assay: Selectivity ratio of MBC for Haemophilus influenzae ATCC 49247 to MIC for Haemophilus influenzae ATCC 49247; assay type: functional
Staphylococcus aureus [10] = assay: Bactericidal activity against methicillin-resistant Staphylococcus aureus PU 32 harboring i-ermA gene incubated for 16 to 20 hrs by CLSI based broth microdilution method; assay type: functional; conditions: time 16-20 hrs
Staphylococcus aureus [11] = assay: Selectivity ratio of MBC for methicillin-resistant Staphylococcus aureus PU 20 harboring c-ermA gene to MIC for methicillin-resistant Staphylococcus aureus PU 20 harboring c-ermA gene; assay type: functional
Haemophilus influenzae [12] = assay: Bactericidal activity against Haemophilus influenzae ATCC 49247 incubated for 16 to 20 hrs by CLSI based broth microdilution method; assay type: functional; conditions: time 16-20 hrs
Haemophilus influenzae [13] = assay: Antibacterial activity against Haemophilus influenzae ATCC 49247 incubated for 16 to 20 hrs by CLSI based broth microdilution method; assay type: functional; conditions: time 16-20 hrs
Staphylococcus aureus [14] = assay: Antibacterial activity against methicillin-resistant Staphylococcus aureus PU 32 harboring i-ermA gene incubated for 16 to 20 hrs by CLSI based broth microdilution method; assay type: functional; conditions: time 16-20 hrs
Staphylococcus aureus [15] = assay: Bactericidal activity against methicillin-resistant Staphylococcus aureus PU 20 harboring c-ermA gene incubated for 16 to 20 hrs by CLSI based broth microdilution method; assay type: functional; conditions: time 16-20 hrs
Streptococcus pneumoniae [16] = assay: Selectivity ratio of MBC for Streptococcus pneumoniae ATCC 49619 to MIC for Streptococcus pneumoniae ATCC 49619; assay type: functional
Streptococcus pneumoniae [17] = assay: Antibacterial activity against Streptococcus pneumoniae ATCC 49619 incubated for 16 to 20 hrs by CLSI based broth microdilution method; assay type: functional; conditions: time 16-20 hrs
Streptococcus pyogenes [18] = assay: Selectivity ratio of MBC for Streptococcus pyogenes 01-968 harboring i-ermB gene to MIC for Streptococcus pyogenes 01-968 harboring i-ermB gene; assay type: functional
Streptococcus pneumoniae [19] = assay: Bactericidal activity against Streptococcus pneumoniae 07P390 harboring c-erm gene incubated for 16 to 20 hrs by CLSI based broth microdilution method; assay type: functional; conditions: time 16-20 hrs
Streptococcus pyogenes [20] = assay: Antibacterial activity against Streptococcus pyogenes 01-968 harboring i-ermB gene incubated for 16 to 20 hrs by CLSI based broth microdilution method; assay type: functional; conditions: time 16-20 hrs
Streptococcus pneumoniae [21] = assay: Antibacterial activity against Streptococcus pneumoniae 07P390 harboring c-erm gene incubated for 16 to 20 hrs by CLSI based broth microdilution method; assay type: functional; conditions: time 16-20 hrs
Staphylococcus aureus [22] = assay: Antibacterial activity against methicillin-resistant Staphylococcus aureus PU 20 harboring c-ermA gene incubated for 16 to 20 hrs by CLSI based broth microdilution method; assay type: functional; conditions: time 16-20 hrs
Streptococcus pneumoniae [23] = assay: Selectivity ratio of MBC for Streptococcus pneumoniae 07P390 harboring c-erm gene to MIC for Streptococcus pneumoniae 07P390 harboring c-erm gene; assay type: functional
Streptococcus pneumoniae [24] = assay: Antibacterial activity against Streptococcus pneumoniae PU 09 harboring mef gene incubated for 16 to 20 hrs by CLSI based broth microdilution method; assay type: functional; conditions: time 16-20 hrs
Staphylococcus aureus [25] = assay: Selectivity ratio of MBC for methicillin-resistant Staphylococcus aureus PU 32 harboring i-ermA gene to MIC for methicillin-resistant Staphylococcus aureus PU 32 harboring i-ermA gene; assay type: functional
[26] = Inhibition of Escherichia coli DNA supercoiling assessed as reduction in protein synthesis by firefly luciferase gene assay; assay type: functional
Escherichia coli [27] = assay: Antibacterial activity against Escherichia coli SQ110 DTC harboring 23S rRNA A2058G/Gyr A Ser83Leu mutant incubated for 16 to 20 hrs by CLSI based broth microdilution method; assay type: functional; conditions: time 16-20 hrs
Escherichia coli [28] = assay: Selectivity ratio of MIC for Escherichia coli SQ110 DTC harboring 23S rRNA A2058G mutant to MIC for wild-type Escherichia coli SQ110 DTC; assay type: functional
Escherichia coli [29] = assay: Antibacterial activity against Escherichia coli SQ110 DTC harboring 23S rRNA A2058G mutant incubated for 16 to 20 hrs by CLSI based broth microdilution method; assay type: functional; conditions: time 16-20 hrs
HepG2 = assay: Cytotoxicity against human HepG2 cells assessed as cell viability at 5 to 50 uM incubated for 48 hrs by CCK8 assay; assay type: toxicity, cell-based; conditions: hepg2, 48 h, dose 5-50 µM
Escherichia coli [30] = assay: Selectivity ratio of MIC for Escherichia coli SQ110 DTC harboring 23S rRNA A2058G/Gyr A Ser83Leu mutant to MIC for wild-type Escherichia coli SQ110 DTC; assay type: functional
DNA gyrase = DNA gyrase (Escherichia coli, UniProt P0AES4+P0AES6); assay: Inhibition of Escherichia coli DNA gyrase using pBR322 DNA as substrate incubated for 30 mins by electrophoresis; assay type: protein-complex assay
[31] = Metabolic stability in Escherichia coli SQ110 DTC assessed as unchanged drug at 5 to 10 times MIC measured after 60 mins by LC-MS/MS analysis; assay type: ADME; conditions: Escherichia coli SQ110 DTC cells, read-out: Stability
Escherichia coli [32] = assay: Antibacterial activity against wild-type Escherichia coli SQ110 DTC incubated for 16 to 20 hrs by CLSI based broth microdilution method; assay type: functional; conditions: time 16-20 hrs
Escherichia coli [33] = assay: Selectivity ratio of MIC for Escherichia coli SQ110 DTC harboring Gyr A Ser83Leu mutant to MIC for wild-type Escherichia coli SQ110 DTC; assay type: functional
Escherichia coli [34] = assay: Antibacterial activity against Escherichia coli SQ110 DTC harboring Gyr A Ser83Leu mutant incubated for 16 to 20 hrs by CLSI based broth microdilution method; assay type: functional; conditions: time 16-20 hrs
HEK-293T = assay: Cytotoxicity against HEK293T cells assessed as cell viability at 5 to 50 uM incubated for 48 hrs by CCK8 assay; assay type: toxicity, cell-based; conditions: human, dose 5-50 µM

SMILES	remaining at 1 h, 1 µM [1] [%]	half-life at 1 µM [2] [min]	remaining at 1 h, 1 µM [3] [%]	CLint scaled at 1 µM [4] [mL/min/kg]	MBC (Streptococcus pneumoniae [5]) [µg/mL]	MBC (Streptococcus pneumoniae [7]) [µg/mL]	MBC (Streptococcus pyogenes [8]) [µg/mL]	Selectivity ratio (Haemophilus influenzae [9])	MBC (Staphylococcus aureus [10]) [µg/mL]	MBC (Haemophilus influenzae [12]) [µg/mL]	MIC (Haemophilus influenzae [13]) [µg/mL]	MIC (Staphylococcus aureus [14]) [µg/mL]	MBC (Staphylococcus aureus [15]) [µg/mL]	Selectivity ratio (Streptococcus pneumoniae [16])	MIC (Streptococcus pneumoniae [17]) [µg/mL]	Selectivity ratio (Streptococcus pyogenes [18])	MBC (Streptococcus pneumoniae [19]) [µg/mL]	MIC (Streptococcus pyogenes [20]) [µg/mL]	MIC (Streptococcus pneumoniae [21]) [µg/mL]	MIC (Staphylococcus aureus [22]) [µg/mL]	also measured
CCOc1ccc2ccc(=O)oc2c1	1	21.2	14.1	58.7																	
CC[C@H]1OC(=O)[C@H](C)[C@@H](OC(=O)CCN2CCN(c3c(F)cc4c(=O)c(C(=O)O)cn(C5CC5)c4c3OC)CC2C)[C@H](C)[C@@H](O[C@@H]2O[C@H](C)C[C@H](N(C)C)[C@H]2O)[C@](C)(OC)C[C@@H](C)/C(=N\OCC#Cc2cncc(C(=O)NC)c2)[C@H](C)[C@H]2OC(=O)O[C@@]21C (stereo partly drawn)					4 (≈ 3.25 µM)	1 (≈ 0.811 µM)	> 128	1	> 256	2 (≈ 1.62 µM)	2 (≈ 1.62 µM)	> 256	32 (≈ 26 µM)	2	0.5 (≈ 0.406 µM)	>8	> 128	16 (≈ 13 µM)	16 (≈ 13 µM)	32 (≈ 26 µM)	Selectivity ratio (Streptococcus pneumoniae [6]): 4; Selectivity ratio (Staphylococcus aureus [11]): 1; Selectivity ratio (Streptococcus pneumoniae [23]): >8; MIC (Streptococcus pneumoniae [24]): 1 µg/mL (≈ 0.811 µM)
CC[C@H]1OC(=O)[C@H](C)[C@@H](OC(=O)CCNCCCCCNc2cc3c(cc2F)c(=O)c(C(=O)O)cn3C2CC2)[C@H](C)[C@@H](O[C@@H]2O[C@H](C)C[C@H](N(C)C)[C@H]2O)[C@](C)(OC)C[C@@H](C)/C(=N\OC)[C@H](C)[C@H]2OC(=O)O[C@@]21C	98.4	57.3	42	21.8	1 (≈ 0.956 µM)	0.125 (≈ 0.119 µM)	> 0.062	1	8 (≈ 7.65 µM)	256 (≈ 245 µM)	256 (≈ 245 µM)	1 (≈ 0.956 µM)	> 256	2	0.062 (≈ 0.0593 µM)	>8	2 (≈ 1.91 µM)	≤ 0.008	1 (≈ 0.956 µM)	128 (≈ 122 µM)	Selectivity ratio (Streptococcus pneumoniae [6]): 2; Selectivity ratio (Staphylococcus aureus [25]): 8; Selectivity ratio (Streptococcus pneumoniae [23]): 2; MIC (Streptococcus pneumoniae [24]): 0.5 µg/mL (≈ 0.478 µM)
CC[C@H]1OC(=O)[C@H](C)[C@@H](OC(=O)CCNCCCCNc2cc3c(cc2F)c(=O)c(C(=O)O)cn3C2CC2)[C@H](C)[C@@H](O[C@@H]2O[C@H](C)C[C@H](N(C)C)[C@H]2O)[C@](C)(OC)C[C@@H](C)/C(=N\OCC#Cc2cncc(C(=O)NC)c2)[C@H](C)[C@H]2OC(=O)O[C@@]21C	70.6	459	91.3	2.7	0.008 (≈ 0.00672 µM)	0.008 (≈ 0.00672 µM)	> 0.5	2	32 (≈ 26.9 µM)	4 (≈ 3.36 µM)	2 (≈ 1.68 µM)	32 (≈ 26.9 µM)	> 256	>=1	≤ 0.008	>8	1 (≈ 0.84 µM)	0.06 (≈ 0.0504 µM)	0.12 (≈ 0.101 µM)	> 256	IC50 [26]: 0.74 µM; MIC (Escherichia coli [27]): > 128 µg/mL; Selectivity ratio (Escherichia coli [28]): 1; MIC (Escherichia coli [29]): 4 µg/mL (≈ 3.36 µM); Activity (HepG2): Non-Toxic; Selectivity ratio (Escherichia coli [30]): >32; IC50 (DNA gyrase): 11.9 µM; remaining at 1 h [31]: 84.3%; MIC (Escherichia coli [32]): 4 µg/mL (≈ 3.36 µM); Selectivity ratio (Escherichia coli [33]): 2; Selectivity ratio (Staphylococcus aureus [25]): 1; Selectivity ratio (Streptococcus pneumoniae [23]): 8; MIC (Escherichia coli [34]): 8 µg/mL (≈ 6.72 µM); MIC (Streptococcus pneumoniae [24]): ≤ 0.008 µg/mL; Activity (HEK-293T): Non-Toxic
